Test results: patent publication US20090156399A1, “Synergistic Insecticide Mixtures” (Bayer CropScience AG, priority 2005, published 2009)

Tested on: Myzus persicae
Test: Myzus persicae test (cabbage leaf dip)
Assay type: in vivo
Source text: The expected activity for a given combination of two active compounds can be calculated (cf. COLBY, S. R.; “Calculating Synergistic and Antagonistic Responses of Herbicide Combinations”, Weeds 15, pages 20-22, 1967):
if • X=the kill rate, expressed in % of the untreated control, when employing active compound A at an application rate of m ppm, • Y=the kill rate, expressed in % of the untreated control, when employing active compound B at an application rate of n ppm, • E=the kill rate, expressed in % of the untreated control, when employing active compounds A and B at application rates of m and n ppm, then
If the actual insecticidal kill rate is higher than the calculated one, the kill rates of the combination are superadditive, i.e. a synergistic effect is present. In this case, the kill rate that is actually observed has to be higher than the value, calculated using the formula above, for the expected kill rate (E).
To produce a suitable preparation of active compound, 1 part by weight of active compound is mixed with the stated amounts of solvent and emulsifier, and the concentrate is diluted with emulsifier-containing water to the desired concentration. […]
After the desired period of time, the kill in % is determined. […] The determined kill rates are entered into Colby's formula (see page 27).

Row | SMILES | Kill in % after 6d (0.16 ppm, cabbage leaves dipped, after 6 d) [%] | Kill in % after 1d (0.8 ppm, cabbage leaves (Brassica oleracea) dipped, after 1 d) [%]
1 | CN/C(=N\[N+](=O)[O-])NCc1cnc(Cl)s1 [Clothianidin] | 0 | –
2 | N#C/N=C1\SCCN1Cc1ccc(Cl)nc1 [Thiacloprid] | – | 30
